Results reported in paper PMC5458052 (Nature Communications, 2017).
Values joined by “and” are separate entries in the source; they are usually repeats but may differ in a detail not shown here. Equal entries are not always repeated. “Also recorded” adds a separate entry of the source. Where two headings read alike, the source gives them in different places.

Assays:
[1] = Mammalian cell cytotoxicity; assay type: cell-based; conditions: human; HeLa cells, n=3; read-out: cytotoxicity median IC50
[2] = test system: Late stage gametocytes; oocysts in Anopheles stephensi mosquitoes; test: whole plant or invertebrate; assay type: cell-based
[3] = Single rising oral dose MTD study in rats; conditions: both sexes, Sprague-Dawley, rat, in vivo; single oral administration; read-out: maximum-tolerated dose (MTD)
CYP2D6 = CYP2D6 (Homo sapiens, UniProt P10635); test: Cytochrome P450 inhibition CYP2D6; assay type: in vitro ADME
Nav1.5 channel = Nav1.5 channel (Homo sapiens, UniProt Q14524); test: Nav1.5 electrophysiology assay (IonWorks HT, CHO cells); assay type: cell-based; conditions: at >100 μM
[4] = test system: P. falciparum strain 3D7^0087/N9; test: Humanized SCID mouse model of P. falciparum; assay type: in vivo, Plasmodium falciparum
[5] = Dog PK, compartmental analysis
[6] = rat, in vivo
Sigma 2 receptors = target: T1, Sigma 2 receptors (Homo sapiens, UniProt Q5BJF2); test: CEREP radioligand binding screen, Sigma 2
T1 construct: CEREP
T1 sequence (Q5BJF2 whole entry): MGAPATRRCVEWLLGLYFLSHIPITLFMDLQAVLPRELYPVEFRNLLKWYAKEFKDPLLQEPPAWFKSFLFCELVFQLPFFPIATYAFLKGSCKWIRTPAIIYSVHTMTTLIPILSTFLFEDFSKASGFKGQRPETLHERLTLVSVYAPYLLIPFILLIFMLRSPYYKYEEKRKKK

CYP2C9 = CYP2C9 (Homo sapiens, UniProt P11712); test: Cytochrome P450 inhibition CYP2C9
Chain of CYP2C9 (P11712 whole entry): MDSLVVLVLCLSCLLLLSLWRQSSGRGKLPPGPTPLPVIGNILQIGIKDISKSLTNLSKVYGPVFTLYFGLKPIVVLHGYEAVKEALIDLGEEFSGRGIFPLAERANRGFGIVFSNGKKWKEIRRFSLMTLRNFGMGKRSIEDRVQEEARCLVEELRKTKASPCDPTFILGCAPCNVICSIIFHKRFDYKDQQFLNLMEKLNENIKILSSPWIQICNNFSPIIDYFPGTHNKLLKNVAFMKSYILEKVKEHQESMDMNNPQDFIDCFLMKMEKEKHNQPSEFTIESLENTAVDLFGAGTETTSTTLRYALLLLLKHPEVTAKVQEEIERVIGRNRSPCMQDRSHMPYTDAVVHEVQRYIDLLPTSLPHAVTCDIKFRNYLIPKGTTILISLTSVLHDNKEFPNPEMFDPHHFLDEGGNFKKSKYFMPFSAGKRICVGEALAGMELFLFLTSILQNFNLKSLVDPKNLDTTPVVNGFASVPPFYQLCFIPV

in vivo = conditions: Sprague-Dawley, rat; for AUC(0-t) / Cmax: po
[7] = In vitro intrinsic clearance, rat liver microsomes (Chem Partners); assay type: in vitro ADME; conditions: rat (R) liver microsomes
[8] = Metabolic stability and metabolite profile in rat liver microsomes; assay type: in vitro ADME
[9] = Rat PK iv 1 mg/kg (Chem Partners); conditions: in vivo
CYP3A4 = CYP3A4 (Homo sapiens, UniProt P08684); test: biochemical
[10] = Metabolic stability in dog liver microsomes; assay type: in vitro ADME; conditions: substrate 1 µM
Sigma 1 receptors = target: T2, Sigma 1 receptors (Homo sapiens, UniProt Q99720); test: CEREP radioligand binding screen, Sigma 1
T2 construct: CEREP
T2 sequence (Q99720 whole entry): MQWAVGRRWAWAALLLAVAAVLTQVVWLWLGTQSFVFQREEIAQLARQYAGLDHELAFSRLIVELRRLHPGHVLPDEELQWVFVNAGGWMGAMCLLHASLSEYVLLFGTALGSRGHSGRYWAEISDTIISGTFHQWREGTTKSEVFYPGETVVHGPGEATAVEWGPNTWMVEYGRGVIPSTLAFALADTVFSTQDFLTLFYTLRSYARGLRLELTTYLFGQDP

[11] = test system: P. falciparum K13 wild-type and mutant lines (Cam3.II, V1/S); test: microbe, parasite or virus in culture; assay type: cell-based, Plasmodium falciparum; conditions: read-out: IC50 Mean
[12] = test system: major human CYP450s (all isoforms together); test: in vitro
[13] = test system: P. falciparum strains (sensitive and resistant); test: microbe, parasite or virus in culture; assay type: cell-based; conditions: Plasmodium falciparum
Cav1.2 channel = Cav1.2 channel (Homo sapiens, UniProt Q13936); test: Cav1.2 electrophysiology assay (IonWorks HT, CHO cells); assay type: cell-based; conditions: at >100 μM
Chain of Cav1.2 channel (Q13936 whole entry): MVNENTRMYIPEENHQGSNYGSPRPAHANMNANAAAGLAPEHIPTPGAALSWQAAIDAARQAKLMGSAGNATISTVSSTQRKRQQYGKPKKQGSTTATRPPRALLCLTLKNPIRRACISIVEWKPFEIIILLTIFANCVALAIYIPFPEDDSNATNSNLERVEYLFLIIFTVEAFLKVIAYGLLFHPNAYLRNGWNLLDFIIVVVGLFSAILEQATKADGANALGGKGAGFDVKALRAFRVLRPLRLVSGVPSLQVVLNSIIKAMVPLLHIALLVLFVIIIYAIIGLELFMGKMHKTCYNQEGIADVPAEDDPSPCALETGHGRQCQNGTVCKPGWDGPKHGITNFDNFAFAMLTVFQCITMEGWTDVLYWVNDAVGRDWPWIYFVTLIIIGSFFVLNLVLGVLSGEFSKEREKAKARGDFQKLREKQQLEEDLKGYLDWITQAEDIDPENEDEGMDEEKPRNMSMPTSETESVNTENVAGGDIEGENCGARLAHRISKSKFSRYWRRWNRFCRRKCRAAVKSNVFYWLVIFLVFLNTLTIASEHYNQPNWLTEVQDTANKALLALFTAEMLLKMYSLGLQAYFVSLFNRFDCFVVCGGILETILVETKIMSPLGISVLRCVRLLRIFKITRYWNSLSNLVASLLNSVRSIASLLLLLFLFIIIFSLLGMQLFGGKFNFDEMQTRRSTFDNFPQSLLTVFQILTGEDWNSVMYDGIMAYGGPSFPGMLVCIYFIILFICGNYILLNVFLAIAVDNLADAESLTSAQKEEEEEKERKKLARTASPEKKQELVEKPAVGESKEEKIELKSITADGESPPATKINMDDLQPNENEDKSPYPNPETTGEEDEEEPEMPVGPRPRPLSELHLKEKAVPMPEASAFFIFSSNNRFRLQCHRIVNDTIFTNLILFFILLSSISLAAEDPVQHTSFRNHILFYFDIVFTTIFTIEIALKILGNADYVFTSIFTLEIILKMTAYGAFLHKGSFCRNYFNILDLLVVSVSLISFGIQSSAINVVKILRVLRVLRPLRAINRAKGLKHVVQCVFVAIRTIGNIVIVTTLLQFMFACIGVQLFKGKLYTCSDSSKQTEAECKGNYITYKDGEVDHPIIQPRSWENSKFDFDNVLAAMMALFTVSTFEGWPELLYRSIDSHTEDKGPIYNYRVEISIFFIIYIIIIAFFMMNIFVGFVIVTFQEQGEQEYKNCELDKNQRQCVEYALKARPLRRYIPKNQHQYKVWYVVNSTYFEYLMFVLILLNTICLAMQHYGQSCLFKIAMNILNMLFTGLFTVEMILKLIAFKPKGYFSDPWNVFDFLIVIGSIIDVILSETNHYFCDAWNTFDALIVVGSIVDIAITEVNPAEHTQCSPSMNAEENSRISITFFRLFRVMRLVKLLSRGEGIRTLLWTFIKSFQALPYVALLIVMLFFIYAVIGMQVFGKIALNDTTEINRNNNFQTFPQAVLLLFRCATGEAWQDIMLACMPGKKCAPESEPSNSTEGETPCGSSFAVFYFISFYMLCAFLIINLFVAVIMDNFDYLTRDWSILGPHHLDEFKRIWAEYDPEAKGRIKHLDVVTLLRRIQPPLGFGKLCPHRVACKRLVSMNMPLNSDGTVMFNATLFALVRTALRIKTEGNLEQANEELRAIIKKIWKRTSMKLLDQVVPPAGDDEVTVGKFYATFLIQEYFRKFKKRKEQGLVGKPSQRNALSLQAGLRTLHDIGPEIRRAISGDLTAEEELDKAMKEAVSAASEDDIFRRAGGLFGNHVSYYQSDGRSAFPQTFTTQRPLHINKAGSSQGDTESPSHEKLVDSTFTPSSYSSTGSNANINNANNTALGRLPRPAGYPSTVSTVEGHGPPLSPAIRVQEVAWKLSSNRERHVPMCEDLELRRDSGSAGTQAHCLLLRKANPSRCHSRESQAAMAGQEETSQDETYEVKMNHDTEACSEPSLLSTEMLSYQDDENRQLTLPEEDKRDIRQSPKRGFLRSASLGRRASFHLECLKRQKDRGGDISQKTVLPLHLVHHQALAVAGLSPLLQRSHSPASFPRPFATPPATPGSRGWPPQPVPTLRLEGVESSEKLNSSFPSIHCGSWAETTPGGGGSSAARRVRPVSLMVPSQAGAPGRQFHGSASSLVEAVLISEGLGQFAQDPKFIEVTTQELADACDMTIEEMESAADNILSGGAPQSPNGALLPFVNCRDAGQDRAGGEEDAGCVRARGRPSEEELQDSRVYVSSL
Chain of Cav1.2 channel (Q08289 whole entry partner): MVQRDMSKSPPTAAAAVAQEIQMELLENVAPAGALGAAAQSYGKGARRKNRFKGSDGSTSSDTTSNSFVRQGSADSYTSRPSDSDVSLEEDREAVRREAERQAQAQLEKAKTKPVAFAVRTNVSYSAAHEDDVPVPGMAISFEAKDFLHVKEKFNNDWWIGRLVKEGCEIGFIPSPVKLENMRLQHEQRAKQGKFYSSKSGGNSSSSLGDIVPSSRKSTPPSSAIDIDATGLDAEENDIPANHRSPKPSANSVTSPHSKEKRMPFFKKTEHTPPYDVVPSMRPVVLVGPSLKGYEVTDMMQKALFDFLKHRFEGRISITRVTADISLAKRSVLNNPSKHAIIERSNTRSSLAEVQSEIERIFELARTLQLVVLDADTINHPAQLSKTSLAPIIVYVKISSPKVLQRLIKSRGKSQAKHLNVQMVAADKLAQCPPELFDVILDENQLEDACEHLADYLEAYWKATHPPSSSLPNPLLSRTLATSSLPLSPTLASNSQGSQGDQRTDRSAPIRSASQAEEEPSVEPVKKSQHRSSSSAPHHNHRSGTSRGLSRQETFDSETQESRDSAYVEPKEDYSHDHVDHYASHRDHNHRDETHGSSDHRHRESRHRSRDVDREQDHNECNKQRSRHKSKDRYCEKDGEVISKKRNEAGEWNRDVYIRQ
Chain of Cav1.2 channel (P54289 25-946 partner limits assumed): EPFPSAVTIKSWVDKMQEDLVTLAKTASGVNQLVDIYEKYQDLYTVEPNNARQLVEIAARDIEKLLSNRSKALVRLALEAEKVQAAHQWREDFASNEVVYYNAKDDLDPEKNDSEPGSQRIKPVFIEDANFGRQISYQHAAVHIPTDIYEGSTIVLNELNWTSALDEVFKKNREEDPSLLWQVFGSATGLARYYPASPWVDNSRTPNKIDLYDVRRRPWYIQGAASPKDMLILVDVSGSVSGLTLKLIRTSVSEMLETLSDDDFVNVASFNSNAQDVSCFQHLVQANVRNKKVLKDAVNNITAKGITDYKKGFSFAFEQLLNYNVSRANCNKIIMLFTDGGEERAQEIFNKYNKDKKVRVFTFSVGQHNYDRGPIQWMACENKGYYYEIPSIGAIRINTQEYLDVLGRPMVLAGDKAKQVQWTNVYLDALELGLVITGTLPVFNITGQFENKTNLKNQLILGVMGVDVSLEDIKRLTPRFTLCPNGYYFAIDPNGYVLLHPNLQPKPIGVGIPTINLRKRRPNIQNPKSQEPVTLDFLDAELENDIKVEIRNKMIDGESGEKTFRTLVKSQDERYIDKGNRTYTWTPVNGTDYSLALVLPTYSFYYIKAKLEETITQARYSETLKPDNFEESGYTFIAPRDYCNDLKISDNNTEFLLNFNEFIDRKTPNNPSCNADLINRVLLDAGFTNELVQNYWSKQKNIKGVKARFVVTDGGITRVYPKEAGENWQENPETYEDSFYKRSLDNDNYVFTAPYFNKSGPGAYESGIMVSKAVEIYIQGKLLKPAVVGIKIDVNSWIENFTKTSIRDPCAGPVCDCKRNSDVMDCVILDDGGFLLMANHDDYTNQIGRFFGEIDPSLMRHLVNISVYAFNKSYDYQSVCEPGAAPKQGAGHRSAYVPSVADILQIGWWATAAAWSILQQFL
Chain of Cav1.2 channel (P54289 947-1103 partner limits assumed): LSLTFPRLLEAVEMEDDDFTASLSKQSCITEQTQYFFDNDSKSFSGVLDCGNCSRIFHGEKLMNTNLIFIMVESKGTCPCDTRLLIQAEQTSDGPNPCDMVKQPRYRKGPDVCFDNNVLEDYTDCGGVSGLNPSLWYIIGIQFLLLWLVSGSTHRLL

CYP2C19 = CYP2C19 (Homo sapiens, UniProt P33261); test: Cytochrome P450 inhibition CYP2C19; assay type: in vitro ADME
[14] = test system: P. falciparum clinical field isolates; test: microbe, parasite or virus in culture; assay type: cell-based; conditions: Plasmodium falciparum, read-out: Median IC50
[15] = Mouse PK, compartmental analysis
[16] = Rat PK, compartmental analysis
[17] = Rat blood stability in vitro; conditions: male, Sprague Dawley, freshly collected whole blood
[18] = Metabolic stability and metabolite profile in human liver microsomes; conditions: for Microsome-Predicted EH: human liver microsomes
[19] = test system: P. falciparum strain 3D7A; test: In vitro parasite reduction ratio (PRR) assay; assay type: cell-based, Plasmodium falciparum
[20] = test system: P. vivax clinical field isolates; test: microbe, parasite or virus in culture; assay type: cell-based; conditions: Plasmodium vivax, read-out: Median IC50
in vitro = conditions: human, microsomes
[21] = target: T3, cardiac IKr (hERG) channel (Homo sapiens, UniProt Q12809); test: hERG electrophysiology assay (IonWorks HT, CHO cells); assay type: cell-based
T3 construct: expressed in transfected cells; host or cells: CHO cells

P. berghei = test system: P. berghei; design: species or system Plasmodium berghei

SMILES: FC1CCN(CCOc2ccc(C3CCC4(CC3)OOC3(OO4)C4CC5CC(C4)CC3C5)cc2)CC1 (stereo not shown) [Compound E209]
- IC50 [1]: 2850 nM
- transmission-blocking activity (percentage of mosquitoes with no observed oocysts) [2]: ~60% and 90%
- IC50 ([2]; Anopheles stephensi, read-out: IC50 (reduction in oocyst mean intensity)): 14.5 nM
- MTD [3]: 300 mg/kg
- IC50 (CYP2D6): > 20 µM
- inhibitory activity (Nav1.5 channel): no inhibitory activity
- AUC ED90 ([4]; single oral dose): 1.2 µg·h/mL
- parasite clearance ([4]; single oral dose 30 mg kg^−1): Complete parasite clearance; also recorded: maximum parasite clearance
- ED90 ([4]; single oral dose, calculated): 11.6 mg/kg
- Absorption rate constant Ka ([5]; PO 5 mg kg^−1): 0.33 h⁻¹
- bioavailability ([5]; male, Beagle, plasma, oral, 5 mg kg^−1): 40%
- clearance ([5]; male, Beagle, plasma, other: intravenous and oral, fitted together): 18.3 mL/min/kg
- finding at 100 mg kg^−1 [6]: body weight loss
- tolerability [6]: not tolerated
- IC50 (Sigma 2 receptors): ~200 nM
- IC50 (CYP2C9): > 20 µM
- NOAEL (in vivo; female): 50 mg/kg/day
- AUC(0-t) (in vivo; female, 50 mg/kg): 14800 ng·h/mL
- Cmax (in vivo; female, 50 mg/kg): 1070 ng/mL
- NOAEL (in vivo; male): 100 mg/kg/day
- AUC(0-t) (in vivo; male, 100 mg/kg): 19600 ng·h/mL
- Cmax (in vivo; male, 100 mg/kg): 1200 ng/mL
- CLint scaled [7]: 70 mL/min/kg
- % Substrate Consumed ([8]; rat liver microsomes with NADPH, 60 minutes): 54%
- Microsome-Predicted EH ([8]; rat liver microsomes, substrate 1 µM): 0.48
- half-life at 1 µM ([8]; rat liver microsomes, substrate 1 µM, read-out: Degradation half-life): 48 min
- microsomal CLint at 1 µM ([8]; rat liver microsomes, substrate 1 µM, read-out: In vitro CLint): 36 µL/min/mg
- Microsome-Predicted EH ([8]; rat liver microsomes, substrate 5 µM): 0.45
- half-life at 5 µM ([8]; rat liver microsomes, substrate 5 µM, read-out: Degradation half-life): 54 min
- microsomal CLint at 5 µM ([8]; rat liver microsomes, substrate 5 µM, read-out: In vitro CLint): 32 µL/min/mg
- clearance [9]: 5.1 mL/min/kg
- IC50 (CYP3A4): > 20 µM
- Microsome-Predicted EH ([10]; n=1): 0.38
- half-life at 1 µM ([10]; n=1, read-out: Degradation half-life): 173 min
- microsomal CLint at 1 µM ([10]; n=1, read-out: In vitro CLint): 10 µL/min/mg
- IC50 (Sigma 1 receptors): ~200 nM
- IC50 ([11]; Plasmodium falciparum, 72 h): 8.71 nM
- IC50 [11]: 7.6 nM and 7.51 nM and 8.46 nM and 7.76 nM and 7.81 nM
- IC50 [12]: > 20 µM
- IC50 ([13]; DD2, strain Dd2 (chloroquine resistant), mean ± SD n=3): 7.7 ± 1.5 nM
- IC50 ([13]; HB3, strain HB3 (chloroquine sensitive), mean ± SD n=3): 4.2 ± 0.8 nM
- IC50 ([13]; NF54, strain NF54 (chloroquine sensitive), mean ± SD n=3): 5.2 ± 1 nM
- IC50 ([13]; TM90C2B, strain TM90C2B (chloroquine resistant), mean ± SD n=3): 7.3 ± 1.4 nM
- IC50 ([13]; read-out: mean IC50 range, panel of 10 sensitive and multidrug-resistant P. falciparum isolates): 2.9 to 14 nM
- IC50 ([13]; strain 7G8 (chloroquine resistant), mean ± SD n=3): 2.9 ± 0.6 nM
- IC50 ([13]; strain D6 (chloroquine sensitive), mean ± SD n=3): 8.5 ± 1.6 nM
- IC50 ([13]; strain FCB (chloroquine resistant), mean ± SD n=3): 14 ± 2.7 nM
- IC50 ([13]; strain K1 (chloroquine resistant), mean ± SD n=3): 4.2 ± 0.8 nM
- IC50 ([13]; strain V1/S (chloroquine resistant), mean ± SD n=3): 4.2 ± 0.8 nM
- inhibitory activity (Cav1.2 channel): no inhibitory activity
- IC50 (CYP2C19): > 20 µM
- IC50 [14]: 15.7 nM
- Absorption rate constant Ka ([15]; PO 10 mg kg^−1): 0.79 h⁻¹
- bioavailability ([15]; female, Swiss Outbred, plasma, oral, 10 mg kg^−1): 82%
- clearance ([15]; female, Swiss Outbred, plasma, other: intravenous and oral, fitted together): 71.7 mL/min/kg
- Absorption rate constant Ka ([16]; PO 9 mg kg^−1): 0.31 h⁻¹
- clearance ([16]; male, Sprague-Dawley, plasma, other: intravenous and oral, fitted together): 26.7 mL/min/kg
- half-life at 1 µM [17]: 780 min
- % Substrate Consumed ([18]; human liver microsomes with NADPH, 60 minutes): 45%
- Microsome-Predicted EH ([18]; substrate 1 µM): 0.50
- Microsome-Predicted EH ([18]; substrate 5 µM): 0.48
- half-life at 1 µM ([18]; human, liver microsomes): 68 min
- half-life at 5 µM ([18]; human, liver microsomes): 76 min
- microsomal CLint at 1 µM ([18]; human, liver microsomes): 25 µL/min/mg
- Lag phase ([19]; 10 × IC50): 0 h
- Log PRR ([19]; 10 × IC50): > 4.8
- Slope ([19]; 10 × IC50): −0.098
- PCT 99.9 % ([19]; 10 × IC50, parasite clearance time): < 24 h
- IC50 [20]: 10.5 nM
- microsomal CLint (in vitro): 23 µL/min/mg
- IC50 [21]: > 3.5 µM
- In vivo (Pb) MSD (days) at 1 x 30 mg/kg (P. berghei): 26.3 days and 25.0 (15, 30, 30) (2 cures) days
- cure rate (P. berghei; in vivo): 66%
